The target of the assay is T1, Human type-X sPLA2 (Homo sapiens, UniProt O15496).
T1 construct: made in house; unpurified culture supernatant
T1 sequence (O15496 43-165): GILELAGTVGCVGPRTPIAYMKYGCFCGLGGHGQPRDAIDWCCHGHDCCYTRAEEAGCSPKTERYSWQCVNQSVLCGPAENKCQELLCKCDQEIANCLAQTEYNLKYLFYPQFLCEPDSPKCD
Description: Type-X sPLA2 inhibition test (chromogenic assay, diheptanoylthio PC). In kind it is biochemical. To be noted: culture supernatant of CHO cells expressing human type-X sPLA2, 30 min at 40° C., absorbance at 405 nm. From the text: cDNA sequence encoding human type-X sPLA2 (Cupillard et al., J. Biol. Chem, 1997, 272, 15745-15752) was inserted into the downstream region of the promoter of pSVL SV40 Late Promoter Expression Vector (Amersham Pharmacia Biotech Inc.) that is an expression vector for mammalian cells. The obtained expression vector was transfected into the host CHO cells with a LipofectAMINE reagent (Gibco BRL Inc.) according to the manufacture's instruction to obtain the CHO cells stably expressing human type-X sPLA2. The transfected cell was cultured in α-MEM medium containing 10% fetal calf serum for 3 days and its culture supernatant was used for the measurement of each enzyme activity.
In order to identify and evaluate an inhibitor of type-X sPLA2, the following chromogenic assay is utilized. This assay has been applied for high volume screening using a 96-well microtiterplate. A general explanation for this assay is described in “Analysis of Human Synovial Fluid Phospholipase A2 on Short Chain Phosphatidylcholine-Mixed Micelles: Development of a Spectrophotometric Assay Suitable for a Micortiterplate Reader” (Analytical Biochemistry, 204, pp 190-197, 1992 by Laure. J. Reynolds. Lori L. Hughes and Edward A. Dennis.
Test compounds (or solvent blank) were added according to the alignment of plates that had been previously set. Human type-X sPLA2 was incubated (30 min at 40° C. (15 μl/well)) with diheptanoylthio PC (1 mM) in the presence of Triton X-100 (0.3 mM) and 5,5′-dithiobis(2-nitrobenzoic acid) (125 μM) in Tris-HCl buffer (25 mM, pH 7.5) containing CaCl2 (10 mM), KCl (100 mM), and bovine serum albumin (1.0 mg/mL). The changes in the absorbance at 405 nm were measured and the inhibition activities were calculated.
The IC50 value was determined by plotting the log concentration of the above-mentioned compounds (1)-(19) with respect to their inhibition values within 10% to 90% inhibitory range.

The record followed here is patent US20040077651A1, “Remedies for cancer” (priority 2000, published 2004).

Broadly, the IC50 is the point on the concentration scale where inhibition reaches its midpoint. The low end stands for inhibition by little substance, the high end for a need for much substance. Molecule `CCCc1c(C(=O)C(N)=O)c2c(OCC(=O)O)nc(C)cn2c1CCc1ccccc1` [Compound 6] registered an IC50 of 17 nM.
Take `NC(=O)C1=CCCc2c1c1c(OCC(=O)O)cccn1c2Cc1ccccc1` [Compound 7]: the IC50 came out at 5 nM.
Next, `NC(=O)c1cccc2c1c1c(OCC(=O)O)cc(-c3ccco3)cc1n2Cc1ccccc1` [Compound 11]: 10 nM.
